# Test results taken from ChEMBL document CHEMBL1129699, “Synthesis of furo[2,3-c]pyran--D-thymidine” (Bioorg Med Chem Lett, 1996).
# Tests used:
# CEM-SS [1] = experiment: Compound was tested in vitro for its anti-HIV activity in CEM-SS cells; assay type: functional, cell-based; conditions: Homo sapiens
# CEM-SS [2] = experiment: Compound was tested in vitro for its cytotoxicity in CEM-SS cells; assay type: functional; conditions: Homo sapiens
IC50 (CEM-SS [1]),Structure (SMILES),CC50 (CEM-SS [2])
> 100 µM,Cc1cn(C2CC3CC(C)OCC3(CO)O2)c(=O)[nH]c1=O (centres undefined),> 100 µM
> 100 µM,Cc1cn(C2CC3CC(CI)OCC3(CO)O2)c(=O)[nH]c1=O (centres undefined),> 100 µM
